These results are taken from patent US20220348572A1, “BRIDGED HETEROCYCLYL-SUBSTITUTED PYRIMIDINE COMPOUND, PREPARATION METHOD THEREFOR, AND PHARMACEUTICAL USE THEREOF” (The National Institutes of Pharmaceutical R&D Co., Ltd., priority 2019, published 2022).

For one assay, the target named is T1, JAK1 kinase (Homo sapiens, UniProt P23458).
T1 construct: purchased Invitrogen PV4744
The assay can be described thus: In vitro inhibitory activity on JAK1 kinase (ADP-Glo Kinase Assay). The following applies: JAK1 kinase 4 nM, 1 mM ATP. Type of assay: biochemical. A digest of the protocol:
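JAK1 (4 nM final) preincubated with compound 15 min at 25° C., then substrate mix (1 mM ATP, IRS1 0.05 mg/ml) added for 60 min at 25° C. ADP-Glo luminescence read-out; top concentration 10 μM, 3-fold, 10 points, duplicates; IC50 reported in ranged classes.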

For assay [1], the system named is IFN-2α-stimulated TYK2/JAK1-mediated pathway (pSTAT3). The assay can be described thus: Inhibition of STAT3 signaling pathway of human whole blood (IFN-2α-induced pSTAT3, flow cytometry). It is filed as cell-based. The procedure:
Test Example 3: Inhibition Effect of the Compounds of the Present Invention on STAT3 Signaling Pathway of Human Whole Blood
Sample preparation: The compounds of the present invention and the control were dissolved in DMSO solvent respectively to formulate into 10 mM initial liquid. The maximum concentration of the compound was 10 μM, 3-fold dilution, 10 concentration gradients, and duplicate wells for each concentration gradient.
Experimental process: 20 μL of the compound of the present invention was added to a flow cytometer tube (BD, 352052) containing 180 μL anticoagulant sodium heparin. 20 μL PBS was added to the control. The sample was incubated at 37° C. for 30 min. 2 μL stimulating factor was added and then incubated at 37° C. for 20 min. 1 mL erythrocyte lysate was rapidly added, and the sample was repeatedly inverted 5-10 times or vortexed and then incubated at 37° C. for 10 min. The sample was centrifuged at 600 g for 6-8 min. The supernatant was discarded. The precipitate was vortexed until suspending. The cells were washed with 3 mL PBS and centrifuged at 600 g for 6-8 min. The supernatant was discarded. The precipitate was vortexed until suspending. 1 mL of membrane breaking solution was added, and the system was mixed gently, incubated on ice for 30 min, and centrifuged at 600 g for 6-8 min. The supernatant was discarded. The precipitate was vortexed until suspending. The cells were washed. 3 mL PBS was added. The system was centrifuged at 600 g for 6-8 min. The supernatant was discarded. The precipitate was vortexed untile suspending. The process was repeated twice. 100 μL PBS was added to each staining tube. IFN-2a was added for stimulation, and CD3 and pSTAT3 antibodies […] were added. The system was mixed well, protected from light and incubated at room temperature for 60 min. The cells were washed. 3 mL PBS was added. The system was centrifuged at 600 g for 6-8 min. The supernatant was discarded. The precipitate was vortexed until suspending. The precipitate was suspended in 150 μL in the dark for the flow cytometry analysis. The IC50 (half inhibitory concentration) of the compounds was obtained by using the following non-linear fitting equation:
Y=Bottom+(Top−Bottom)/(1+10^((Log IC50−X)*HillSlope));
X: Log value of the concentration of the compound;
Bottom: The minimum value, Top: The maximum value, HillSlope: Slope
The inhibition effect of by the compounds of the present invention on the IFN-2α-stimulated TYK2/JAK1-mediated pathway is shown in Table 3. IC50 value of 0-100 nM is shown as A, IC50 value of 100-300 nM is shown as B, IC50 value of 300-1000 nM is shown as C, IC50 value which is greater than 1000 nM is shown as D. NT means not tested.
(In general: In flow cytometry, cells or beads pass a laser one at a time.)

In another assay the test system is AIA in rats. Kind of assay: Pharmacodynamic study for AIA in rats (complete Freund's adjuvant, joint swelling score). It is filed as in vivo, Lewis rats. The following applies: for Scoring value Day 1: Day 1, Mean ± SD; for Scoring value Day 1 / Scoring value Day 3 / Scoring value Day 7: AIA Lewis rats; for Scoring value Day 3: Day 3, Mean ± SD; for Scoring value Day 7: Day 7, Mean ± SD; for symptoms of arthritis induced by complete Freund's adjuvant (in words): AIA model in rats. From the text: Test Example 4: Pharmacodynamic Studies of the Compounds of Example 1, Example 1-b and Example 3 for AIA in Rats
Experimental material: complete Freund's adjuvant (Chondrex, 7027)
Experimental process: The in vivo efficacy of the compounds of the invention was investigated. 8-Week-old female Lewis rats were selected for modeling by complete Freund's adjuvant (J. of Immunology, 2010, 184: 5298-5307) and grouped after 12 days. 7 groups were divided: the model group, the Example 1 low dose group (3 mg/kg), the Example 1 high dose group (30 mg/kg), the Example 1-b low dose group (1 mg/kg), the Example 1-b high dose group (3 mg/kg), the Example 3 low dose group (3 mg/kg) and the Example 3 high dose group (30 mg/kg). The model group was given 0.5% CMC-Na and the rest groups were given the corresponding dose of the compound. The animals were scored according to the degree of joint swelling after 7 days of oral administration (Proc Soc Exp Bio Med 1962, 111: 544-547).

T1 sequence (P23458 866-1154 limits assumed): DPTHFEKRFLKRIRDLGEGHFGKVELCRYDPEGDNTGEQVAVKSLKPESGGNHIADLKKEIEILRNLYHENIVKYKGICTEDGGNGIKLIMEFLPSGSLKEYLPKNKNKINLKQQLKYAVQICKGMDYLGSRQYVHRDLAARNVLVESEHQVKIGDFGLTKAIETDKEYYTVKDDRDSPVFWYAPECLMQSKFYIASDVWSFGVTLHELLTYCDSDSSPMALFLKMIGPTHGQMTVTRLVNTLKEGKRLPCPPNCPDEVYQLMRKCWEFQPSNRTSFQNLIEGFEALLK

Take `Cn1cc(Nc2nccc(C3=CC4CCC(C3)N4C(=O)[C@@H]3CC3(F)F)n2)cn1` (stereo partly drawn) [Compound 1, ((S)-2,2-difluorocyclopropyl)(3-(2-((1-methyl-1H-pyrazol-4-yl)amino)pyrimidin-4-yl)-8-azabicyclo[3.2.1]oct-2-en-8-yl)methanone]: the concentration for half-maximal inhibition (IC50) (usually the concentration that gives 50% inhibition) against JAK1 kinase was under 100 nM. The IC50 in assay [1] is under 100 nM. Further, in the assay with AIA in rats (3 mg/kg oral), the “Scoring value Day 1” value was 3.78 ± 2.54, the “Scoring value Day 3” value amounted to 2.67 ± 1.22 and the “Scoring value Day 7” value was 0.22 ± 0.44. In addition, in the assay on AIA in rats (30 mg/kg oral), the “Scoring value Day 1” value came to 4.11 ± 2.52, the “Scoring value Day 3” value is on record as 0.44 ± 0.73 and the “Scoring value Day 7” value amounted to 0.00 ± 0.00. Also, the “symptoms of arthritis induced by complete Freund's adjuvant (in words)” value (from here on “symptoms of arthritis induced”) in the assay with AIA in rats is recorded as “significantly inhibit”.
For `Cn1cc(Nc2nccc(C3=C[C@H]4CC[C@@H](C3)N4C(=O)[C@@H]3CC3(F)F)n2)cn1` [Compound 1-b, ((S)-2,2-difluorocyclopropyl)((1R,5S)-3-(2-((1-methyl-1H-pyrazol-4-yl)amino)pyrimidin-4-yl)-8-azabicyclo[3.2.1]oct-2-en-8-yl)methanone], the IC50 (at JAK1 kinase; in assay [1]) was under 100 nM in each case. Further, the “Scoring value Day 1” value in the assay with AIA in rats (1 mg/kg oral) and in the assay on AIA in rats (3 mg/kg oral) was 3.30 ± 2.67 each time. The figures for the “Scoring value Day 3” value in the assay on AIA in rats (1 mg/kg oral) and with AIA in rats (3 mg/kg oral) were 3.10 ± 3.51 and 0.30 ± 0.95, respectively. The “Scoring value Day 7” value in the assay with AIA in rats (1 mg/kg oral) was found to be 3.30 ± 3.71; with AIA in rats (3 mg/kg oral) it was 1.50 ± 3.75. Besides, the “symptoms of arthritis induced” value in the assay on AIA in rats is “significantly inhibit”.
As for `Cn1cc(Nc2nccc(C3=CC4CCC(C3)N4C(=O)NCC(F)(F)F)n2)cn1` (stereo not drawn) [Compound 3, 3-(2-((1-methyl-1H-pyrazol-4-yl)amino)pyrimidin-4-yl)-N-(2,2,2-trifluoroethyl)-8-azabicyclo[3.2.1]oct-2-ene-8-carboxamide], on JAK1 kinase, the IC50 was 100 to 300 nM. The same molecule returned an IC50 in assay [1] of under 100 nM. Besides, in the assay with AIA in rats (3 mg/kg oral), the “Scoring value Day 1” value is given as 3.78 ± 1.92, the “Scoring value Day 3” value is recorded as 3.78 ± 1.72 and the “Scoring value Day 7” value stood at 1.33 ± 0.87. Also, in the assay on AIA in rats (30 mg/kg oral), the “Scoring value Day 1” value is 3.44 ± 1.94, the “Scoring value Day 3” value is given as 0.56 ± 0.53 and the “Scoring value Day 7” value was 0.00 ± 0.00. The “symptoms of arthritis induced” value with AIA in rats is on record as “significantly inhibit”.
